≈ marks a conversion by molar mass, not a printed value. Structures can show the parent of a compound that is named as a salt.
Experiments:
[1] = test system: isolated ileum of guinea pigs; assay: Spasmolytic activity on the isolated ileum of guinea pigs (acetylcholine-induced spasm); conditions: limits in parentheses, contact time spasmogenic 1 min, spasmolytic 3 min, interval between administrations 5 min; for IC50: Cavia porcellus, 0.05 h, read-out: ED50 and base limits on spasm induced by 100 mg/ml of acetylcholine
Protocol: (1) (1) induced by 100 mg/ml of acetylcholine
(1) The time of contact of the spasmogenic and spasmolytic substances was
1 and 3 minutes, respectively.
The interval between the administrations was 5 minutes.

[2] = test system: anaesthetized mongrel dogs; assay: Haemodynamic activities in anaesthetized dogs; assay type: in vivo; design: key to Flow coronary / Flow femoral / Contractive power of heart: +++: intense increase; ++: moderate increase; +: faint increase; =: no change; conditions: intravenous; for Arterial pressure Average variation carotid / Arterial pressure Average variation femoral / Contractive power of heart / Flow coronary / Flow femoral: one twentieth of the LD50: cuanzine HCl 8, hydrazide bitartrate 10, 21-epicuanzine HCl 5, apocuanzine HCl 2.5, dimethylaminoethyl ester 10 mg/kg
Protocol: The products under investigation were administered intravenously to anaesthetized mongrel dogs in doses which were in proportion to the lethal dose (one twentieth of the LD50).
The average of the carotid and femoral arterial pressures, the […] coronary and femoral flow rates and the contractive power of the heart were measured and the results are shown in Table I.

Row | Compound | ED50 and base limits on spasm induced by 100 mg/ml of acetylcholine [1] | Arterial pressure Average variation carotid [2] | Arterial pressure Average variation femoral [2] | Contractive power of heart [2] | Flow coronary [2] | Flow femoral [2] | IC50 [1] | haemodynamic activity compared with cuanzine (in words) ([2]; anaesthetized dogs, one twentieth of the LD50)
1 | 21-epicuanzine | 37 (68.8 - 19.9) γ/ml |  |  |  |  |  |  | 
2 | COC(=O)[C@]1(O)C[C@]23CCO[C@H]2CCN2CCc4c(n1c1c(OC)cccc41)[C@H]23 [21-epicuanzine hydrochloride, 21-Epicuanzine (A=β-H,B = CO2 Me, C=OH,D=H) hydrochloride] |  | -20 mm Hg | -20 mm Hg | = | ++ | + |  | 
3 | COC(=O)C1=C[C@]23CCO[C@H]2CCN2CCc4c(n1c1c(OC)cccc41)[C@@H]23 [Apocuanzine hydrochloride, Apocuanzine] |  | -15 mm Hg | -15 mm Hg | + | +++ | + |  | 
4 | COC(=O)C1=C[C@]23CCO[C@H]2CCN2CCc4c(n1c1c(OC)cccc41)[C@@H]23 [Apocuanzine] |  |  |  |  |  |  | 26.5 µg/mL (≈ 69.7 µM) | 
5 | COc1cccc2c3c([nH]c12)[C@H]1N(CC3)CC[C@@H]2OCC[C@@]21CC(=NN)C(=O)NN [Cuanzine hydrazide bitartrate] |  | -30 mm Hg | -30 mm Hg | + | +++ | ++ | 74 µg/mL | 
6 | COC(=O)[C@]1(O)C[C@]23CCO[C@H]2CCN2CCc4c(n1c1c(OC)cccc41)[C@@H]23 [Cuanzine hydrochloride, reference compound] |  | -10 mm Hg | -10 mm Hg | = | ++ | + | 120 µg/mL | 
7 | COc1cccc2c3c4n(c12)[C@](O)(C(=O)OCCN(C)C)C[C@]12CCO[C@H]1CCN(CC3)[C@H]42 [N,N-dimethylaminoethyl nor-cuanzinate] |  | -10 mm Hg | -10 mm Hg | = | ++ | + |  | as active as cuanzine
